Reference: PMC11022729 (Advanced Science, 2024)

Target: T1, human D2S receptor (Homo sapiens, UniProt P14416)
T1 construct: expressed in transfected cells; host or cells: CHO
Assay: [3H]-spiperone competition binding assay, D2
Procedure: CHO cells stably expressing human dopamine D2short (D2R) and D3 receptor (D3R) were washed and harvested using PBS. […] The cell membrane homogenate was centrifuged (20 000 × g, 20 min, 4 °C), and the resulting cell pellet was resuspended in the binding buffer. Crude membrane extracts were kept at −80 °C until use. Before starting the experiments, cell membranes were thawed, homogenized by sonication (3 × 10 s), and stored in an ice‐cold binding buffer. […] Assays were performed at least in triplicate with appropriate concentrations ranging from 0.01 nM to 100 µM of the test compound. Non‐specific binding was determined using 10 µM haloperidol. By filtering through GF/B filters pretreated with 0.3% (m/v) polyethyleneimine, the bound radioligand was separated from free radioligand using a cell harvester. Radioactivity was measured using liquid scintillation counting. Data were evaluated using the GraphPad Prism 9 software (San Diego, CA, USA) with a nonlinear regression fit.

T1 sequence (P14416 1-414 isoform P14416-2): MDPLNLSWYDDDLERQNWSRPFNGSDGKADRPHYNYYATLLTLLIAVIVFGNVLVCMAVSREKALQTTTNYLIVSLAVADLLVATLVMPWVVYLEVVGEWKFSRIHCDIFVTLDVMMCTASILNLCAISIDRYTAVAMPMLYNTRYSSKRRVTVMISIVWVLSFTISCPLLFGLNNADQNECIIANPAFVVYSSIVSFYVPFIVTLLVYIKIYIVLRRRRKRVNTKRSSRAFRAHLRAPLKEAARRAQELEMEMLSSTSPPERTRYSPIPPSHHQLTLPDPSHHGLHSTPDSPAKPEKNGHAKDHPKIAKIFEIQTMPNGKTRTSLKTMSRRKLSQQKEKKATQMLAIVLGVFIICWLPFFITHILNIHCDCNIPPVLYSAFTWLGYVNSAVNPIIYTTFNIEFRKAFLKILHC

For `O=C(O)COCCN1CCN(C2=Nc3ccccc3Oc3ccc(Cl)cc32)CC1` [Compound 6], the “fold lower affinity against D2 as compared to loxapine” value was “≈ 40 fold” and the Ki (mean [CI 95%]) was 1.28 µM.
